Results on one compound are retold here after patent US20240009331A1, “UROKINASE PLASMINOGEN ACTIVATOR RECEPTOR TARGETED RADIOLABELED PEPTIDE CONJUGATES” (CURASIGHT A/S, priority 2020, published 2024).

The target of this assay is uPAR H47C-N259C. Kind of assay: SPR inhibition of uPAR binding to immobilized uPA (uPAR H47C-N259C). The arrangement: species or system human. Conditions: inhibition of uPAR binding to immobilized prouPA S356A. On the procedure: Covalent immobilization of purified human prouPA^S356A was accomplished by injecting 12.5 μg/ml protein dissolved in 10 mM sodium acetate (pH 5.0) over a CM5 chip that had been pre-activated with NHS/EDC (N-ethyl-N′[3-[…])propyl]-carbodiimide), aiming at a surface density of >5000 resonance units (RU) corresponding to 100 fmols/mm^2. After coupling the sensor-chip was deactivated with 1 M ethanolamine. Binding of purified human uPAR as analyte was measured from 4 nM to 0.25 nM at using 10 mM HEPES, 150 mM NaCl, 3 mM EDTA (pH 7.4) containing (v/v) surfactant P20 as running buffer at a flow rate of […]. In between cycles the sensor-chip was regenerated by two consecutive 10-μl injections of 0.1 M acetic acid/HCI (pH 2.5) in 0.5 M NaCl. The inhibition of 3-fold dilutions of the compounds in question was measured for 4 nM uPAR with identical running conditions. All experiments were performed on a BiacoreT200 instrument.
For each inhibition peptide inhibition profile of uPAR binding to immobilized uPA there has been run a preceding standard curve and all calculations are based on the that standard curve.

By IC50 is commonly meant the concentration that gives 50% inhibition.

Turning to `CC(C)C[C@H](NC(=O)[C@H](Cc1ccc(O)cc1)NC(=O)[C@@H](CCCNC(=N)N)NC(=O)[C@@H](CO)NC(=O)[C@H](Cc1ccccc1)NC(=O)[C@H](CC1CCCCC1)NC(=O)[C@@H](N)CC(=O)O)C(=O)N[C@@H](Cc1c[nH]c2ccccc12)C(=O)N[C@@H](CO)C(=O)O` [AE105, DChaFsrYLWS-OH], the IC50 was 4.5 ± 1.5 µM.
